Data on 2 molecules can be found in patent US20080091026A1, “NOVEL CRYSTAL OF N-[[(5S)-3-[4-(2,6-DIHYDRO-2-METHYLPYRROLO[3,4-C]PYRAZOL-5(4H)-YL)-3-FLUOROPHENYL]-2-OXO-5-OXAZOLIDINYL]METHYL]ACETAMIDE” (TRANSFORM PHARMACEUTICALS, INC., priority 2006, published 2008).

A short description of series [1]: solubility of the crystal form. It counts as physicochemical. The settings on record: compared to prior known forms of the API.
Series [2] in a line: bioavailability of the crystal form. To be noted: compared to prior known forms of the API. It counts as in vivo.
For series [3] the following is noted: background statement; cited from earlier work.

For `CC(=O)NC[C@H]1CN(c2ccc(N3Cc4cn(C)nc4C3)c(F)c2)C(=O)O1.O=C(O)CC(=O)O` [Form α crystal], the solubility entry in series [1] was “improved”. In addition, the bioavailability entry in series [2] is “improved”. With `CC(=O)NC[C@H]1CN(c2ccc(N3Cc4cn(C)nc4C3)c(F)c2)C(=O)O1` [N-[[(5S)-3-[4-(2,6-dihydro-2-methylpyrrolo[3,4-c]pyrazol-5(4H)-yl)-3-fluorophenyl]-2-oxo-5-oxazolidinyl]methyl]acetamide], the bioavailability in humans entry in series [3] is on record as “poor”.
